Where no end group is shown, it is not given here. [ ]: non-standard residue; d: D form. Aib = CC(C)(N)C(=O)O
Key:
[1] = tested on: MPTP mouse model of Parkinson's disease; details: cited from earlier work
[2] = tested on: APP/PS1 mouse model of AD; details: 12 months old APP/PS1 mice; cited from earlier work
[3] = tested on: C57BL/6 mice given MPTP; experiment: Rotarod motor control test in the MPTP Parkinson mouse model; format: in vivo; details: 10 nmol/kg i.p. once daily for 2 weeks, FIG. 3, N=6 per group
Source text: (§1) A standard model to induce Parkinson like symptoms in mice is the injection of the chemical (MPTP) (Li et al., 2009). This chemical impairs or kills neurons in the brain that produce dopamine. The mice develop motor impairments, and the dopaminergic neurons in the brain are reduced in numbers and function. The enzyme tyrosine hydroxylase (TH) is required to synthesise dopamine. A loss of TH signifies a loss of dopamine production (Harkavyi et al., 2008).
Adult male C57BL/6 mice were given the dopaminergic toxin MPTP (20 mg/kg in 0.1 mL of PBS i.p. at 2-h intervals of 4 doses MPTP; Sigma) or vehicle (PBS) for one day. This treatment selectively affects dopaminergic neurons and induces Parkinson-like symptoms in mice.
The dose of peptide tested was 10 nmol/kg body weight. The peptides were administered by a once-daily intraperitoneal injection for 2 weeks. Saline injections were administered as a control. Six animals per group were injected with a peptide or a saline control.
The rotarod consists of a rotating pole that accelerates over time. Mice are placed on the rod, and motor skills are tested by accelerating the rotation. As the rotation increases, animals lose grip and fall on a cushion located below the rod. […] Each animal's endurance time was recorded, and the average was calculated. Data were analysed using a one-way ANOVA with post-hoc Bonferroni tests.

[4] = tested on: C57BL/6 mice given MPTP; experiment: Immunohistochemistry for TH in the substantia nigra pars compacta, MPTP Parkinson mouse model; format: in vivo; details: 10 nmol/kg i.p. once daily for 2 weeks, FIG. 4, N=6 per group
Source text: as §1
Adult male C57BL/6 mice were given the dopaminergic toxin MPTP (20 mg/kg in 0.1 mL of PBS i.p. at 2-h intervals of 4 doses MPTP; Sigma) or vehicle (PBS) for one day. […]
Immunohistochemistry for TH in the Substantia Nigra Pars Compacta and the Striatum Six animals per group were analysed for expression of tyrosine hydroxylase (TH), a marker for dopamine production. Coronal brain sections (20 μm) from striatum (bregma […]) and SNpc (bregma […]) were analysed by immunohistochemistry using antibodies recognising TH.
Sections were cut on a cryostat and postfixed in 4% paraformaldehyde, washed in PBS, treated with 0.3% H2O2 in methanol for 20 min, and washed again. […] For each animal, three tissue sections from one level of striatum were stained and analysed for TH-positive fibre innervation. […] Two tissue sections from each level were quantified by immunohistochemistry. […]

[5] = tested on: APP/PS1 transgenic mice; experiment: Immunohistochemical measurement of synaptic densities (synaptophysin) in the cortex of APP/PS1 transgenic mice; format: in vivo; details: 10 nmol/kg i.p. once daily for 8 weeks, FIG. 2, N=6 per group
Source text: (§2) Animal models have been developed to test novel drugs. A standard model for Alzheimer's disease is transgenic mice that express human mutated genes for amyloid production that are known to induce Alzheimer's disease in humans. These APP/PS1 transgenic mice recapitulate some of the symptoms of Alzheimer's disease such as the aggregation of amyloid in the brain, memory loss and the loss of synapses (Radde et al., 2006).
(§3) The APP/PS1 mice express human Swedish mutated APP and human mutated presenilin-1 which induce Alzheimer's Disease in humans.
(§4) The dose of peptide tested was 10 nmol/kg body weight. The peptides were administered by a once-daily intraperitoneal injection for 8 weeks. Saline injections were administered as a control. Six animals per group were injected with a peptide or a saline control.
Animals (6 per group) were perfused transcardially with 30 ml of ice-cold PBS and 30 ml of ice-cold 4% paraformaldehyde to postfix the brain. The brains were removed and placed in fresh 30% sucrose solution in PBS to cryoprotect tissue and cut at a thickness of 40 μm on a cryostat. Sections were chosen according to stereological rules, with the first section taken at random and every 5th section afterwards. Between 7 and 13 sections were analysed per brain. […]

[6] = tested on: APP/PS1 transgenic mice; experiment: Immunohistochemical measurement of beta-amyloid plaque load in the cortex of APP/PS1 transgenic mice; format: in vivo
Source text: as §2, §3, §4
Animals (6 per group) were perfused transcardially with 30 ml of ice-cold PBS and 30 ml of ice-cold 4% paraformaldehyde to postfix the brain. The brains were removed and placed in fresh 30% sucrose solution in PBS to cryoprotect tissue and cut at a thickness of 40 μm on a cryostat. Sections were chosen according to stereological rules, with the first section taken at random and every 5th section afterwards. Between 7 and 13 sections were analysed per brain.
Immunostaining techniques were used to assess the neuronal plaque load (anti beta-amyloid rabbit polyclonal antibody (1:200, rabbit polyclonal-Invitrogen 71-5800) and of synaptophysin (polyclonal rabbit anti-synaptophysin primary antibody, 1:2000, Abcam, Cambridge, UK) to measure the amount of synapses in the cortex. Brain samples were first exposed to 99% formic acid for 7 minutes and then washed 3 times for 10 minutes in TBS. Pre-treatment with 99% formic acid is known to drastically increase the detection of beta-Amyloid in formalin-fixed brain samples. Then samples were incubated in 0.3% H2O2 (Sigma Aldrich; Cat.-No.: 516813) in TBS for 30 minutes on the shaker to deplete endogenous peroxides activity, and were 3 times washed in TBS for 10 minutes afterwards.
To increase permeability of membranes in the brain tissue, samples were exposed to 0.3% Triton X-100 (Sigma Aldrich; Cat.-No.: 516813) in TBS for 10 minutes on the shaker. Unspecific proteinophilic binding in the tissue was saturated by incubating the samples with 5% goat serum (Gibco; Cat.-No.: 16210-064) in TBS for 30 minutes on the shaker.
A primary antibody against beta-Amyloid or synaptophysin was added and incubated overnight on the shaker at 4° C. The antibody was polyclonal and raised against a synthetic beta-Amyloid 1-43 peptide in rabbit. The primary antibody was used in a final dilution of 1 to 250 in TBS containing 2% goat serum and […]. […]

Substance	motor impairment, chronic inflammation in the brain and loss of dopaminergic neurons induced by MPTP [1]	amyloid plaque load [2]	synaptic plasticity in area CA1 of the hippocampus and spatial memory formation [2]	impairment of motor skills (rotarod endurance time) [3]	MPTP-induced reduction of TH in the substantia nigra, pars compacta (protection of dopaminergic neurons) [4]	synapse loss / synaptic densities in the cortex [5]	beta-amyloid plaque load in the cortex (% area positive for beta amyloid in cross sections of the brain cortex) ([6]; 10 nmol/kg body weight, once-daily intraperitoneal injection for 8 weeks, FIG. 1, N=6 per group)	beta-amyloid plaque load compared with the single GIP or GLP-1 analogues ([6]; 10 nmol/kg i.p. once daily for 8 weeks, FIG. 1)
D-Ala^2-GIP	protective and prevented the impairment of motor activity, the loss of dopaminergic neurons, loss of synapses and the chronic inflammation response induced by MPTP	much reduced	unimpaired	–	–	–	–	–
YXEGTFTSDYSIYLDKQAAXEFVNWLLAGGPSSGAPPPSKKKKKK-NH2 (Y[Aib]EGTFTSDYSIYLDKQAA[Aib]EFVNWLLAGGPSSGAPPPSKKKKKK-NH2) [DA4, No. 11; X=aminoisobutyric acid]	–	–	–	protect mice from an impairment of motor skills induced by MPTP	protected dopaminergic neurons at a greater rate than the single GIP and GLP-1 analogues	protected from synapse loss	reduces beta-amyloid plaque load	superior to the single GIP or GLP-1 analogues
lixisenatide	good effects in preventing the motor impairment, chronic inflammation in the brain, and loss of dopaminergic neurons	–	–	–	–	–	–	–

Reference: patent US11220534B2, “Treatment of neurological diseases” (Lancaster University Business Enterprises Limited, priority 2016, dated 2022)
